Measured values as given in patent US11236055B2 (Venenum Biodesign, LLC, priority 2016, dated 2022).

Key:
mouse TGR5 receptor = molecular target: T1, mouse TGR5 receptor (Mus musculus, UniProt Q80SS6); assay: Mouse TGR5 cAMP production assay (HTRF, Cisbio cAMP HiRange); type: cell-based; conditions: HEK293-EBNA cells overexpressing mouse TGR5, HTRF cAMP HiRange; coded A-D
T1 construct: expressed in transfected cells; host or cells: HEK293-EBNA (293 c18, ATCC CRL10852), Hygromycin B selection
T1 sequence (Q80SS6 1-329): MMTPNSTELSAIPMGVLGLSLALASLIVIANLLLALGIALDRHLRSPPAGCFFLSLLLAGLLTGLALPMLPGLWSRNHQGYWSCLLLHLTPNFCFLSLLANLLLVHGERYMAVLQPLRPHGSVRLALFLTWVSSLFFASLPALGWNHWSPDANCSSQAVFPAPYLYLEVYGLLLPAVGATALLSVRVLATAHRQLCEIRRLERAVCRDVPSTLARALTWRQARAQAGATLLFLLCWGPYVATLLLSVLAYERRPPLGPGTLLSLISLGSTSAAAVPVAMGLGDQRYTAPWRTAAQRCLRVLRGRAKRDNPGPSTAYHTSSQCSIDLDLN
How it was run: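 cAMP read by HTRF competition after 1 h room-temperature compound exposure of mouse TGR5-overexpressing HEK293-EBNA cells. Cells were suspended in serum-free DMEM containing 500 μM IBMX; compounds ran as 12-point half-log dilutions in duplicate; EC50 derived.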

human TGR5 receptor = molecular target: T2, human TGR5 receptor (Homo sapiens, UniProt Q8TDU6); assay: Human TGR5 cAMP production assay; type: cell-based; conditions: human TGR5, luminescent cAMP assay; coded A-D; read-out: Human TGR5 Lum. cAMP Activity (EC50)
T2 construct: host or cells: CHO-K1 (hTGR5-CHO cells)
T2 sequence (Q8TDU6 1-330): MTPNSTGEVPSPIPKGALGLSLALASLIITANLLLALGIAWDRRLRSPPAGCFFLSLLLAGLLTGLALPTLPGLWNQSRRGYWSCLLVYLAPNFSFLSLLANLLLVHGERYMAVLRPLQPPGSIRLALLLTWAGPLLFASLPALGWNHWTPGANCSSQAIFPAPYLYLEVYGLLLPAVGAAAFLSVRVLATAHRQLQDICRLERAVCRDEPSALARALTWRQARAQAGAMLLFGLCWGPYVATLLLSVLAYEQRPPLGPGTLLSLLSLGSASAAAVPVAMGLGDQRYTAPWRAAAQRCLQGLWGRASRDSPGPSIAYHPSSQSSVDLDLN
How it was run: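 CHO-K1 cells stably expressing human TGR5, with IBMX and cAMP antibody, were exposed to half-log serially diluted compound for 1 h at room temperature. cAMP measured by enzyme-fragment complementation luminescence (XS+ kit) after overnight incubation; EC50 values reported.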

[1] = Pharmacokinetic profile in mice; type: in vivo; conditions: mouse; fasted male Hilltop mice, 10 mg/kg oral gavage, plasma, mean of three mice
Method: Pharmacokinetic Profile in Mice
In this series of studies, the pharmacokinetic profile characteristics of compounds of the present invention were evaluated. The plasma concentration levels of the compounds were monitored in the blood stream (i.e., plasma) after oral gavage using Cmax, and area under the curve (AUC).
8 week old male Hilltop mice were fasted overnight. Animals were randomized into groups (n=9) by body weight. Mice were dosed with 10 mg/kg compound (in 20% PEG400/80% 0.5% carboxymethylcellulose (medium viscosity)+0.25% Tween-80) at a volume of 10 mL/kg through oral gavage. Blood was collected via orbital bleeding at 0, 0.25, 0.5, 1, 2, and 4 h post-dose, with no one mouse having more than 3 blood draws. Blood was collected in EDTA coated tubes. Samples were stored at −20° C. until analysis.
Quantitation of compound levels in plasma was accomplished by LC-MS/MS analysis. Standard curve and quality control samples were prepared in male CD-1 mouse plasma containing EDTA K^2+ as an anticoagulant at final concentrations ranging from 500 to 0.1 ng/mL. The plasma samples, calibration curve standards, and quality control samples were prepared in an identical method in a 96-well deep plate (1 mL) with a quenching solution (1:1 mixed acetonitrile:methanol containing the internal standard Reserpine @ 400 ng/mL). Low volume samples were supplemented with CD-1 mouse plasma. The plate was mixed on multi-tube votex for 1 min and centrifuged at 4000 rpm for 30 min at 4° C. (Sorvall® Super T21) before LC-MS/MS analysis. LC conditions were developed and optimized based on each compound as needed. The outlet of the column was coupled to AB Sciex 4000 QTrap Mass Spectrometer (AB Sciex, Brugg Switzerland). Detection was carried out using multiple reaction monitoring mode with positive-ion detection focusing. The pharmacokinetic parameters were derived from the plasma-time data and calculated using the standard non-compartmental method with WinNonlin (Pharsight, Mountain View, Calif.) or PK Solver (Comp. Meth. Prog. Biomed. (2010), 99, 306-314).
Values reported are the mean plasma concentration of three mice.

Question: Which EC50 (mouse TGR5 receptor) does the source give for `CNC(=O)C[C@H](NS(=O)(=O)c1ccccc1C(F)(F)F)c1cccc(-c2ccncc2C)c1` [Compound 5AZ, (S)-N-methyl-3-(3-(3-methylpyridin-4-yl)phenyl)-3-(2-(trifluoromethyl)phenylsulfonamido)propanamide] here?
Answer: The EC50 was 100 to 999 nM.

Question: And the EC50 (human TGR5 receptor)?
Answer: Its EC50 is 100 to 999 nM.

Question: What about the Cmax [1] of the same compound?
Answer: The Cmax was 2330 ng/mL.

Question: Which EC50 (mouse TGR5 receptor) does the source give for `Cc1cnccc1-c1cccc(C(C)(C)N(CCCC(=O)NCCS(N)(=O)=O)S(=O)(=O)c2cccc(Cl)c2C)c1` [Compound 20AE, 4-(3-chloro-2-methyl-N-(2-(3-(3-methylpyridin-4-yl)phenyl)propan-2-yl)phenylsulfonamido)-N-(2-sulfamoylethyl)butanamide] here?
Answer: The EC50 was less than 100 nM.

Question: What about the EC50 (human TGR5 receptor) of the same compound?
Answer: The EC50 was less than 100 nM.

Question: What about the Cmax [1] of the same compound?
Answer: The Cmax was 128 ng/mL.

Question: Which results are given for `Cc1cnccc1-c1cccc(C(C)(C)N(CCCC(=O)NCCS(=O)(=O)O)S(=O)(=O)c2cccc(Cl)c2C)c1` [Compound 20AG, 2-(4-(3-chloro-2-methyl-N-(2-(3-(3-methylpyridin-4-yl)phenyl)propan-2-yl)phenylsulfonamido)butanamido)ethanesulfonic acid]?
Answer: EC50 (mouse TGR5 receptor): < 100 nM; EC50 (human TGR5 receptor): < 100 nM; Cmax [1]: 1.4 ng/mL

Question: Which EC50 (mouse TGR5 receptor) does the source give for `CCc1cnccc1-c1cccc([C@H](C)N(CCCCC(=O)NCCS(=O)(=O)O)S(=O)(=O)c2cccc(Cl)c2C)c1` [Compound 20AS, (S)-2-(5-(3-chloro-N-(1-(3-(3-ethylpyridin-4-yl)phenyl)ethyl)-2-methylphenylsulfonamido)pentanamido)ethanesulfonic acid] here?
Answer: Its EC50 is less than 100 nM.

Question: What about the EC50 (human TGR5 receptor) of the same compound?
Answer: Its EC50 is less than 100 nM.

Question: What about the Cmax [1] of the same compound?
Answer: Its Cmax is 2.3 ng/mL.

Question: For `Cc1cnccc1-c1cccc(C2(N(CCCC(=O)NCCS(=O)(=O)O)S(=O)(=O)c3cccc(Cl)c3C)COC2)c1` [Compound 20BN, 2-(4-(3-chloro-2-methyl-N-(3-(3-(3-methylpyridin-4-yl)phenyl)oxetan-3-yl)phenylsulfonamido)butanamido)ethanesulfonic acid], which EC50 (mouse TGR5 receptor) is on record?
Answer: Its EC50 is 100 to 999 nM.

Question: What about the EC50 (human TGR5 receptor) of the same compound?
Answer: Its EC50 is less than 100 nM.

Question: And the Cmax [1]?
Answer: Its Cmax is 478 ng/mL.

Question: For `Cc1cnccc1-c1cccc(C(C)(C)N(CCCC(=O)NCC(N)=O)S(=O)(=O)c2cccc(Cl)c2C)c1` [Compound 21AC, N-(2-amino-2-oxoethyl)-4-(3-chloro-2-methyl-N-(2-(3-(3-methylpyridin-4-yl)phenyl)propan-2-yl)phenylsulfonamido)butanamide], which EC50 (mouse TGR5 receptor) is on record?
Answer: The EC50 was less than 100 nM.

Question: And the EC50 (human TGR5 receptor)?
Answer: Its EC50 is less than 100 nM.

Question: What about the Cmax [1] of the same compound?
Answer: Its Cmax is 269 ng/mL.

Question: What does the source list for `Cc1cnccc1-c1cccc([C@H](C)N(CCCC(=O)NCCS(=O)(=O)O)S(=O)(=O)c2cccc(Cl)c2C)c1` [Compound 21AG, (S)-2-(4-(3-chloro-2-methyl-N-(1-(3-(3-methylpyridin-4-yl)phenyl)ethyl)phenylsulfonamido)butanamido)ethanesulfonic acid]?
Answer: EC50 (mouse TGR5 receptor): < 100 nM; EC50 (human TGR5 receptor): < 100 nM; Cmax [1]: 14.3 ng/mL

Question: For `Cc1cnccc1-c1cccc(C(C)(C)N(CCCN/C(=N\C#N)NCCC(=O)O)S(=O)(=O)c2cccc(Cl)c2C)c1` [Compound 25, (E)-3-(3-(3-((3-chloro-2-methyl-N-(2-(3-(3-methylpyridin-4-yl)phenyl)propan-2-yl)phenyl)sulfonamido)propyl)-2-cyanoguanidino)propanoic acid], which EC50 (mouse TGR5 receptor) is on record?
Answer: Its EC50 is less than 100 nM.

Question: And the EC50 (human TGR5 receptor)?
Answer: Its EC50 is less than 100 nM.

Question: What about the Cmax [1] of the same compound?
Answer: Its Cmax is 3.1 ng/mL.

Question: Which EC50 (mouse TGR5 receptor) does the source give for `Cc1cnccc1-c1cccc(C(C)(C)N(CCCC(=O)NCC[N+](C)(C)C)S(=O)(=O)c2cccc(Cl)c2C)c1` [Compound 27AD, 2-(4-(3-chloro-2-methyl-N-(2-(3-(3-methylpyridin-4-yl)phenyl)propan-2-yl)phenylsulfonamido)butanamido)-N,N,N-trimethylethanaminium] here?
Answer: Its EC50 is 100 to 999 nM.

Question: What about the EC50 (human TGR5 receptor) of the same compound?
Answer: Its EC50 is less than 100 nM.

Question: What about the Cmax [1] of the same compound?
Answer: The Cmax was 25.4 ng/mL.

Question: Which EC50 (mouse TGR5 receptor) does the source give for `Cc1cnccc1-c1cccc(C(C)(C)N(CCCNC(=O)NCCS(N)(=O)=O)S(=O)(=O)c2cccc(Cl)c2C)c1` [Compound 29AB] here?
Answer: The EC50 was less than 100 nM.

Question: What about the EC50 (human TGR5 receptor) of the same compound?
Answer: The EC50 was less than 100 nM.

Question: What about the Cmax [1] of the same compound?
Answer: Its Cmax is 109 ng/mL.

Question: For `Cc1cnccc1-c1cccc(C(C)(C)N(CCCNC(=O)CS(=O)(=O)O)S(=O)(=O)c2cccc(Cl)c2C)c1` [Compound 31AB, 2-((3-(3-chloro-2-methyl-N-(2-(3-(3-methylpyridin-4-yl)phenyl)propan-2-yl)phenylsulfonamido)propyl)amino)-2-oxoethanesulfonic acid], which EC50 (mouse TGR5 receptor) is on record?
Answer: Its EC50 is less than 100 nM.

Question: And the EC50 (human TGR5 receptor)?
Answer: Its EC50 is less than 100 nM.

Question: And the Cmax [1]?
Answer: Its Cmax is 35.8 ng/mL.

Question: With `Cc1cnccc1-c1cccc([C@H](C)N(CCCC(=O)NCCS(=O)(=O)NCC(=O)O)S(=O)(=O)c2cccc(Cl)c2Cl)c1` [Compound 36AA, (S)-2-(4-(3-chloro-N-(1-(3-(3-methylpyridin-4-yl)phenyl)ethyl)-2-chloro-phenylsulfonamido)butanamido)ethanesulfonamido acetic acid] as the compound, how does the EC50 (mouse TGR5 receptor) read?
Answer: Its EC50 is less than 100 nM.

Question: And the EC50 (human TGR5 receptor)?
Answer: The EC50 was less than 100 nM.

Question: What about the Cmax [1] of the same compound?
Answer: Its Cmax is 7.5 ng/mL.

Question: For `Cc1cnccc1-c1cccc([C@H](C)N(CCCC(=O)NCCNS(N)(=O)=O)S(=O)(=O)c2cccc(Cl)c2C)c1` [Compound 37, (S)-4-(3-chloro-2-methyl-N-(1-(3-(3-methylpyridin-4-yl)phenyl)ethyl)phenylsulfonamido)-N-(2-(sulfamoylamino)ethyl)butanamide], which EC50 (mouse TGR5 receptor) is on record?
Answer: Its EC50 is less than 100 nM.

Question: What about the EC50 (human TGR5 receptor) of the same compound?
Answer: Its EC50 is less than 100 nM.

Question: And the Cmax [1]?
Answer: Its Cmax is 122 ng/mL.

Question: For `CCc1cnccc1-c1cccc(C2CN(C(=O)CCCC(=O)O)CCN2S(=O)(=O)c2cccc(Cl)c2C)c1` (stereo not drawn) [Compound 46AA, 5-(4-((3-chloro-2-methylphenyl)sulfonyl)-3-(3-(3-ethylpyridin-4-yl)phenyl)piperazin-1-yl)-5-oxopentanoic acid], which EC50 (mouse TGR5 receptor) is on record?
Answer: Its EC50 is less than 100 nM.

Question: And the EC50 (human TGR5 receptor)?
Answer: The EC50 was less than 100 nM.

Question: What about the Cmax [1] of the same compound?
Answer: The Cmax was 1.6 ng/mL.

Question: With `CCc1cnccc1-c1cccc(C2CN(C(=O)COCC(=O)O)CCN2S(=O)(=O)c2cccc(Cl)c2C)c1` (stereo not drawn) [Compound 46AB, 2-(2-(4-((3-chloro-2-methylphenyl)sulfonyl)-3-(3-(3-ethylpyridin-4-yl)phenyl)piperazin-1-yl)-2-oxoethoxy)acetic acid] as the compound, how does the EC50 (mouse TGR5 receptor) read?
Answer: The EC50 was less than 100 nM.

Question: And the EC50 (human TGR5 receptor)?
Answer: Its EC50 is less than 100 nM.

Question: What about the Cmax [1] of the same compound?
Answer: Its Cmax is 4.5 ng/mL.

Question: Which EC50 (mouse TGR5 receptor) does the source give for `CCc1cnccc1-c1cccc(C2CN(S(=O)(=O)CC(=O)O)CCN2S(=O)(=O)c2cccc(Cl)c2C)c1` (stereo not drawn) [Compound 47, 2-((4-((3-Chloro-2-methylphenyl)sulfonyl)-3-(3-(3-ethylpyridin-4-yl)phenyl)piperazin-1-yl)sulfonyl)acetic acid] here?
Answer: Its EC50 is less than 100 nM.

Question: What about the EC50 (human TGR5 receptor) of the same compound?
Answer: Its EC50 is less than 100 nM.

Question: And the Cmax [1]?
Answer: Its Cmax is 228 ng/mL.

Question: With `CCc1cnccc1-c1cccc(C2CN(CCCC(=O)O)CCN2S(=O)(=O)c2cccc(Cl)c2C)c1` (stereo not drawn) [Compound 52AA, 4-(4-((3-chloro-2-methylphenyl)sulfonyl)-3-(3-(3-ethylpyridin-4-yl)phenyl)piperazin-1-yl)butanoic acid] as the compound, how does the EC50 (mouse TGR5 receptor) read?
Answer: Its EC50 is less than 100 nM.

Question: What about the EC50 (human TGR5 receptor) of the same compound?
Answer: The EC50 was less than 100 nM.

Question: What about the Cmax [1] of the same compound?
Answer: Its Cmax is 647 ng/mL.
